From ChEMBL document CHEMBL4219219, “The synthesis and antistaphylococcal activity of N-sulfonaminoethyloxime derivatives of dehydroabietic acid” (Bioorg Med Chem Lett, 2018)
Values after ≈ are worked out from the molar mass of the structure shown. Active and inactive are the calls of the source. The rule behind the calls is not given here.

Assays:
[1] = system: Staphylococcus aureus; experiment: Antistaphylococcal activity against erythromycin-resistant Staphylococcus aureus NRS-70 treated with increasing concentration of test compound everyday for 12 hrs measured after 20 days by two-fold serial dilution method; type: functional
[2] = system: Staphylococcus aureus; experiment: Antistaphylococcal activity against Staphylococcus aureus Newman treated with increasing concentration of test compound everyday for 12 hrs measured after 20 days by two-fold serial dilution method; type: functional
[3] = system: HGC-27; experiment: Cytotoxicity against human HGC27 cells assessed as decrease in cell survival at 20 times MIC after 24 hrs by MTT assay; type: cell-based; conditions: hgc-27, 24 h
[4] = system: SCLC-21H; experiment: Cytotoxicity against human SCLC-21H cells assessed as decrease in cell survival at 20 times MIC after 24 hrs by MTT assay; type: cell-based
[5] = system: Staphylococcus aureus; experiment: Antistaphylococcal activity against aminoglycosides/tetracycline-resistant Staphylococcus aureus NRS-1 after 18 hrs by two-fold serial dilution method; type: functional; conditions: NRS-1, 18 h
[6] = system: Staphylococcus aureus; experiment: Metabolic stability in Staphylococcus aureus Newman at MIC after 12 hrs by LC-MS analysis; type: ADME, organism-based; conditions: in vivo
[7] = system: Staphylococcus aureus; experiment: Antistaphylococcal activity against linezolid-resistant Staphylococcus aureus NRS-271 containing phage type E-MRSA 15 after 18 hrs by two-fold serial dilution method; type: functional; conditions: NRS-271, 18 h
[8] = system: Staphylococcus aureus; experiment: Antistaphylococcal activity against gentamicin-resistant Staphylococcus aureus NRS-108 after 18 hrs by two-fold serial dilution method; type: functional; conditions: NRS-108, 18 h
[9] = system: J82; experiment: Cytotoxicity against human J82 cells assessed as decrease in cell survival at 20 times MIC after 24 hrs by MTT assay; type: cell-based; conditions: j82, 24 h
[10] = system: Staphylococcus aureus; experiment: Antistaphylococcal activity against oxacillin/tetracycline-resistant Staphylococcus aureus NRS-100 after 18 hrs by two-fold serial dilution method; type: functional; conditions: NRS-100, 18 h
[11] = system: Escherichia coli; experiment: Antibacterial activity against Escherichia coli AB1157 at 50 ug/ml after 18 hrs by two-fold serial dilution method; type: functional, organism-based
[12] = system: WiDr; experiment: Cytotoxicity against human WiDr cells assessed as decrease in cell survival at 20 times MIC after 24 hrs by MTT assay; type: cell-based
[13] = system: Staphylococcus aureus; experiment: Antistaphylococcal activity against Staphylococcus aureus Newman after 18 hrs by two-fold serial dilution method; type: functional
[14] = system: NCI-H23; experiment: Cytotoxicity against human H23 cells assessed as decrease in cell survival at 20 times MIC after 24 hrs by MTT assay; type: cell-based; conditions: nci-h23, 24 h
[15] = system: Staphylococcus aureus; experiment: Antistaphylococcal activity against erythromycin-resistant Staphylococcus aureus NRS-70 after 18 hrs by two-fold serial dilution method; type: functional; conditions: NRS-70, 18 h
[16] = system: HEK-293T; experiment: Cytotoxicity against HEK293T cells assessed as decrease in cell survival at 20 times MIC after 24 hrs by MTT assay; type: cell-based; conditions: human
[17] = Metabolic stability in Sprague-Dawley rat plasma after 0.5 to 24 hrs by LC-MS analysis; type: ADME, cell-free

Cc1noc(C)c1S(=O)(=O)NCCO/N=C1\C[C@H]2[C@](C)(C(=O)O)CCC[C@]2(C)c2cc(Br)c(C(C)C)cc21
MIC [1]: 6.25 to 12.5 µg/mL (≈ 10.2 to 20.5 µM)
MIC [2]: 6.25 to 12.5 µg/mL (≈ 10.2 to 20.5 µM)
Activity [3]: Non-Toxic
Activity [4]: Non-Toxic
MIC [5]: 1.56 to 3.13 µg/mL (≈ 2.55 to 5.13 µM)
Stability [6]: Stable
MIC [7]: 1.56 to 3.13 µg/mL (≈ 2.55 to 5.13 µM)
MIC [8]: 1.56 to 3.13 µg/mL (≈ 2.55 to 5.13 µM)
Activity [9]: Non-Toxic
MIC [10]: 3.13 to 6.25 µg/mL (≈ 5.13 to 10.2 µM)
Activity [11]: inactive
Activity [12]: Non-Toxic
MIC [13]: 1.56 to 3.13 µg/mL (≈ 2.55 to 5.13 µM)
Activity [14]: Non-Toxic
MIC [15]: 1.56 to 3.13 µg/mL (≈ 2.55 to 5.13 µM)
Activity [16]: Non-Toxic
Stability [17]: Stable

CC(C)c1cc2c(cc1Br)[C@@]1(C)CCC[C@@](C)(C(=O)O)[C@@H]1C/C2=N\OCCNS(=O)(=O)c1ccc(C(F)(F)F)cc1
Activity [3]: Non-Toxic
Activity [4]: Non-Toxic
MIC [5]: 0.78 to 1.56 µg/mL (≈ 1.18 to 2.37 µM)
Stability [6]: Stable
MIC [7]: 0.78 to 1.56 µg/mL (≈ 1.18 to 2.37 µM)
MIC [8]: 0.78 to 1.56 µg/mL (≈ 1.18 to 2.37 µM)
Activity [9]: Non-Toxic
MIC [10]: 0.78 to 1.56 µg/mL (≈ 1.18 to 2.37 µM)
Activity [11]: inactive
Activity [12]: Non-Toxic
MIC [13]: 1.56 to 3.13 µg/mL (≈ 2.37 to 4.75 µM)
Activity [14]: Non-Toxic
MIC [15]: 0.78 to 1.56 µg/mL (≈ 1.18 to 2.37 µM)
Activity [16]: Non-Toxic
Stability [17]: Stable

CC(C)c1cc2c(cc1Br)[C@@]1(C)CCC[C@@](C)(C(=O)O)[C@@H]1C/C2=N\OCCNS(=O)(=O)c1cccc(Br)c1
MIC [5]: 1.56 to 3.13 µg/mL (≈ 2.33 to 4.67 µM)
MIC [7]: 1.56 to 3.13 µg/mL (≈ 2.33 to 4.67 µM)
MIC [8]: 0.78 to 1.56 µg/mL (≈ 1.16 to 2.33 µM)
MIC [10]: 1.56 to 3.13 µg/mL (≈ 2.33 to 4.67 µM)
Activity [11]: inactive
MIC [13]: 0.78 to 1.56 µg/mL (≈ 1.16 to 2.33 µM)
MIC [15]: 0.78 to 1.56 µg/mL (≈ 1.16 to 2.33 µM)

CC(C)c1cc2c(cc1Br)[C@@]1(C)CCC[C@@](C)(C(=O)O)[C@@H]1C/C2=N\OCCNS(=O)(=O)c1ccc2ccccc2c1
MIC [5]: 3.13 to 6.25 µg/mL (≈ 4.88 to 9.74 µM)
MIC [7]: 3.13 to 6.25 µg/mL (≈ 4.88 to 9.74 µM)
MIC [8]: 1.56 to 3.13 µg/mL (≈ 2.43 to 4.88 µM)
MIC [10]: 3.13 to 6.25 µg/mL (≈ 4.88 to 9.74 µM)
Activity [11]: inactive
MIC [13]: 1.56 to 3.13 µg/mL (≈ 2.43 to 4.88 µM)
MIC [15]: 1.56 to 3.13 µg/mL (≈ 2.43 to 4.88 µM)
